Laboratory results published in patent US12357711B2, “PSMA binding dual mode radiotracer and therapeutic” (Technische Universität München, priority 2019, dated 2025).
Values joined by “and” are separate entries in the source; they are usually repeats but may differ in a detail not shown here. Identical values can stand only once.

Columns and labels:
[1] = target: T1, human serum albumin (Homo sapiens, UniProt P02768); experiment: HSA binding on Chiralpak HSA column; type: in vitro ADME; details: Chiralpak HSA column (50 × 3 mm, 5 μm)
T1 construct: purchased H13H-2433
T1 sequence (P02768 25-609): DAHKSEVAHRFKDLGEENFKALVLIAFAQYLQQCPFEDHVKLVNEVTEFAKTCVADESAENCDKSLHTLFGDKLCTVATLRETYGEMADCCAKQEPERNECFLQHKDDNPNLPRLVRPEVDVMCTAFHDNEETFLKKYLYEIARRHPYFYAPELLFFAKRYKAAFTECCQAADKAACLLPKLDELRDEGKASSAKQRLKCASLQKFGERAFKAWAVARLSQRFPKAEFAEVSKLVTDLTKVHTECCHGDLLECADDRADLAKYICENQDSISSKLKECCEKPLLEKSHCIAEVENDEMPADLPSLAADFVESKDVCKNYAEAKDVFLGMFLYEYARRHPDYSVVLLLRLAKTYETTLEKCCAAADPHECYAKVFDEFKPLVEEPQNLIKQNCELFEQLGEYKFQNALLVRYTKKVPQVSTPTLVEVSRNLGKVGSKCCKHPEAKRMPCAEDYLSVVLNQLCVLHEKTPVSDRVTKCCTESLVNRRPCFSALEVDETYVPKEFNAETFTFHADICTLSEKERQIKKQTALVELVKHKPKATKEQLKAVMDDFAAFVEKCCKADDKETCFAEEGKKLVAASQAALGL
Experimental: The mobile phase (A: NH4OAc, 50 mM in water, pH 7 and B: isopropanol) was freshly prepared for each experiment and only used for one day. The column was kept at room temperature and each run was stopped after detection of the signal to reduce the acquisition time. All substances were dissolved in a 0.5 mg/ml concentration in 50% 2-propanol and 50% 50 mM pH 6.9 ammonium acetate buffer. […] All nine reference substances were injected consecutively to establish a non-linear regression with Origin Pro 2016G.

[2] = system: patients; experiment: Human biodistribution and uptake in tumor lesions (PET/CT, SUV); type: in vivo; details: clinical PET/CT
Experimental: Human biodistribution was estimated by analysing clinical ^18F-rhPSMA-7- and ^18F-rhPSMA-7.3-PET/CT exams in 47 and 32 patients, respectively.
The mean and maximum standardized uptake values (SUVmean/SUVmax) were determined for background (gluteal muscle), normal organs (salivary glands, blood pool, lung, liver, spleen, pancreas, duodenum, kidney, bladder, bone) and three representative tumor lesions. Tumor uptake was analyzed in 89 lesions (26 primary tumors/local recurrences, 23 bone, 38 lymph node and 2 visceral metastases) and 63 lesions (14 primary tumors/local recurrences, 30 bone, 18 lymph node and 1 visceral metastases) for ^18F-rhPSMA-7 and ^18F-rhPSMA-7.3, respectively.
Organ-background and Tumor-background ratios were calculated.

[3] = system: LNCaP tumor-bearing SCID mice; experiment: Biodistribution at 1 h p.i.; type: in vivo
Experimental: FIG. 10: Biodistribution (in % ID/g) of ^18E-labeled rhPSMA tracers at 1 h p.i in LNCaP tumor-bearing SCID mice. Data are expressed as mean±SD (n=4 for rhPSMA7.1, n=5 for 7.2, n=4 for 7.3, n=5 for 7.4 and n=3 for 7-rac).

Substance: [^19F][^natGa]D/L-Dap-R/S-DOTAGA-rhPSMA7 [rhPSMA7-rac]
- HSA Binding [1]: 96.7%
- SUVmax bladder, max [2]: 112.0
- SUVmax bladder, mean [2]: 8.5
- SUVmax bladder, min [2]: 0.5
- SUVmax bloodpool, max [2]: 3.9
- SUVmax bloodpool, mean [2]: 2.4
- SUVmax bloodpool, min [2]: 1.6
- SUVmax duodenum, max [2]: 32.7
- SUVmax duodenum, mean [2]: 14.8
- SUVmax duodenum, min [2]: 2.8
- SUVmax kidney, max [2]: 75.2
- SUVmax kidney, mean [2]: 44.8
- SUVmax kidney, min [2]: 19.1
- SUVmax liver, max [2]: 25.2
- SUVmax liver, mean [2]: 9.5
- SUVmax liver, min [2]: 4.5
- SUVmax lungs, max [2]: 3.1
- SUVmax lungs, mean [2]: 1.1
- SUVmax lungs, min [2]: 0.5
- SUVmax pancreas, max [2]: 7.9
- SUVmax pancreas, mean [2]: 3.7
- SUVmax pancreas, min [2]: 1.8
- SUVmax parotic gland, max [2]: 42.3
- SUVmax parotic gland, mean [2]: 23.8
- SUVmax parotic gland, min [2]: 8.2
- SUVmax spleen, max [2]: 21.0
- SUVmax spleen, mean [2]: 11.8
- SUVmax spleen, min [2]: 4.7
- SUVmax submandibular gland, max [2]: 43.8
- SUVmax submandibular gland, mean [2]: 27.0
- SUVmax submandibular gland, min [2]: 10.1
- SUVmean bladder, max [2]: 85.7
- SUVmean bladder, min [2]: 0.3
- SUVmean bloodpool, max [2]: 17.0
- SUVmean bloodpool, mean [2]: 2.0
- SUVmean bloodpool, min [2]: 1.1
- SUVmean duodenum, max [2]: 23.9
- SUVmean duodenum, mean [2]: 10.9
- SUVmean duodenum, min [2]: 1.9
- SUVmean kidney, max [2]: 54.7
- SUVmean kidney, mean [2]: 32.4
- SUVmean kidney, min [2]: 13.2
- SUVmean liver, max [2]: 17.7
- SUVmean liver, mean [2]: 7.0
- SUVmean liver, min [2]: 3.2
- SUVmean lungs, max [2]: 2.0
- SUVmean lungs, mean [2]: 0.7
- SUVmean lungs, min [2]: 0.3
- SUVmean pancreas, max [2]: 5.5
- SUVmean pancreas, mean [2]: 2.5
- SUVmean pancreas, min [2]: 1.3
- SUVmean parotic gland, max [2]: 32.7
- SUVmean parotic gland, mean [2]: 16.9
- SUVmean parotic gland, min [2]: 5.5
- SUVmean spleen, max [2]: 17.1
- SUVmean spleen, mean [2]: 9.1
- SUVmean spleen, min [2]: 3.4
- SUVmean submandibular gland, max [2]: 29.7
- SUVmean submandibular gland, mean [2]: 19.6
- SUVmean submandibular gland, min [2]: 7.0
- SUVmax background, max ([2]; gluteal muscle): 1.8
- SUVmax background, mean ([2]; gluteal muscle): 1.0
- SUVmax background, min ([2]; gluteal muscle): 0.6
- SUVmean background, max ([2]; gluteal muscle): 1.2
- SUVmean background, mean ([2]; gluteal muscle): 0.6
- SUVmean background, min ([2]; gluteal muscle): 0.4
- SUVmax bone, max ([2]; non-diseased bone): 3.1
- SUVmax bone, mean ([2]; non-diseased bone): 1.7
- SUVmax bone, min ([2]; non-diseased bone): 0.8
- SUVmean bone, max ([2]; non-diseased bone): 2.1
- SUVmean bone, mean ([2]; non-diseased bone): 1.1
- SUVmean bone, min ([2]; non-diseased bone): 0.6
- SUVmax tumor, max ([2]; tumor lesions): 167.2
- SUVmax tumor, mean ([2]; tumor lesions): 27.6
- SUVmax tumor, min ([2]; tumor lesions): 3.1
- SUVmean tumor, max ([2]; tumor lesions): 115.7
- SUVmean tumor, min ([2]; tumor lesions): 2.1
- SUVmean tumor, mean ([2]; tumor lesions, listed as 18F-rhPSMA-7): 20.0±20.2 and 20.0
- SUVmean bladder, mean ([2]; listed as 18F-rhPSMA-7): 6.3
- Biodistribution adrenals [3]: 3.0 ± 0.45 % ID/g
- Biodistribution blood [3]: 1.1 ± 0.03 % ID/g
- Biodistribution bone [3]: 0.91 ± 0.11 % ID/g
- Biodistribution heart [3]: 0.69 ± 0.07 % ID/g
- Biodistribution intestine [3]: 0.60 ± 0.27 % ID/g
- Biodistribution kidneys [3]: 71.3 ± 13.3 % ID/g
- Biodistribution liver [3]: 0.67 ± 0.07 % ID/g
- Biodistribution lung [3]: 1.4 ± 0.17 % ID/g
- Biodistribution muscle [3]: 0.36 ± 0.06 % ID/g
- Biodistribution pancreas [3]: 0.60 ± 0.10 % ID/g
- Biodistribution spleen [3]: 11.1 ± 2.3 % ID/g
- Biodistribution stomach [3]: 0.49 ± 0.07 % ID/g
- Biodistribution tumor ([3]; LNCaP tumor): 10.4 ± 0.67 % ID/g
